# Experimental data taken from patent publication US20230181614A1, “ADMINISTRATION OF CITICOLINE TO IMPROVE COGNITIVE PERFORMANCE, ATTENTIONAL PERFORMANCE, AND MOTOR FUNCTION” (KYOWA HAKKO BIO CO., LTD., priority 2014, published 2023).
# Where “and” joins values, the source holds several entries; their conditions need not be identical. Identical values can stand only once.
# Legend:
# [1] = system: Healthy subjects, ages 13-18; test: Rey-Osterreith Complex Figure Test (ROCFT) / Modified Taylor Complex Figure; type: in vivo, human; parameters: key: raw score: elements correctly recalled, accuracy and placement; conditions: for ROCFT Copy Raw Score V1, Mean / ROCFT Delayed Raw Score V1, Mean / ROCFT Difference Raw Score V1, Mean / ROCFT Immediate Raw Score V1, Mean: Visit 1; for ROCFT V3-V1 Copy Raw Score, Mean / ROCFT V3-V1 Delayed Raw Score, Mean / ROCFT V3-V1 Difference Raw Score, Mean / ROCFT V3-V1 Immediate Raw Score, Mean: Visit difference score
# From the text: Study participants were screened by telephone prior to study enrollment. Healthy subjects, ages 13-18, with no significant medical conditions and no history of co-morbid psychiatric disorder, current Axis I or II diagnosis, or previous participation in a pharmacotherapeutic trial, were selected. Use of any psychotropic medication or any previous head injury resulting in loss of consciousness for 5 or more minutes were used as exclusion criteria. While no participant met criteria for a neuropsychiatric disorder at enrollment, clinical assessments were still completed throughout the study to evaluate changes in mood state. In addition, self-reports of sleep habits, lifestyle, and exercise routines were also administered at baseline as well as at each study visit to assess changes in health habits during study participation. Following the completion of Visit 1 assessment, participants were given their 28-day supply of citicoline (250 mg or 500 mg) or placebo, which was randomly assigned. They were instructed to take one capsule a day every day for the next 28 days. Visit 2 occurred fourteen days after Visit 1. At Visit 2, the remaining study pills were counted and participant dosage calendars were checked to ensure compliance with the protocol. Additional neuropsychological measures and clinical assessments were administered during this visit. Participants returned for Visit 3 fourteen days later, on the 28th day of their study participation. The pill bottle and the dosage calendar were collected from each participant. Urine and blood were again obtained. Participants also participated in similar clinical and neuropsychological testing and clinical measures that were given during visit 1. The ROCFT is an assessment of visuo-organizational ability, visual attention, and visual memory. The participant is asked to copy a complex 2-dimensional figure with the stimulus or complex figure in front of them (Copy Trial), immediately after the stimulus has been removed (Short Delay Trial), and after 30 minutes without the stimulus present (Long Delay Trial). The figure produced at each trial is then evaluated for the strategy used in reproducing the figure, constructional accuracy, and placement of elements within the figure. The Copy, Short Delay, and Long Delay trials are each scored on the number of elements that have been correctly recalled and the accuracy and placement of each element. The Difference Score between immediate and delayed performance scores is a measure of temporary decay for visuospatial memory. This test was administered on both the first and the third visits. The Modified Taylor Complex Figure (MTCF) is an alternate form of the ROCFT to assess visuo-organizational ability, visual attention, and visual memory. The same procedure was used to administer the MTCF. The MTCF was administered at the second visit instead of the ROCFT to minimize the effect of repeat testing on copy and retention of the figure across visits.
# [2] = system: Healthy subjects, ages 13-18; test: Stroop Color Word Test; type: in vivo, human; parameters: unit not given here; conditions: for Stroop Color Trial V1, Mean / Stroop Difference V1, Mean / Stroop Interference Trial V1, Mean / Stroop Word Trial V1, Mean: Visit 1; for V3-V1 Stroop Color Trial, Mean / V3-V1 Stroop Difference, Mean / V3-V1 Stroop Interference Trial, Mean / V3-V1 Stroop Word Trial, Mean: Visit difference score; for Stroop Color Trial V3, Mean / Stroop Difference V3, Mean / Stroop Interference Trial V3, Mean / Stroop Word Trial V3, Mean: Visit 3
# From the text: Study participants were screened by telephone prior to study enrollment. Healthy subjects, ages 13-18, with no significant medical conditions and no history of co-morbid psychiatric disorder, current Axis I or II diagnosis, or previous participation in a pharmacotherapeutic trial, were selected. Use of any psychotropic medication or any previous head injury resulting in loss of consciousness for 5 or more minutes were used as exclusion criteria. While no participant met criteria for a neuropsychiatric disorder at enrollment, clinical assessments were still completed throughout the study to evaluate changes in mood state. In addition, self-reports of sleep habits, lifestyle, and exercise routines were also administered at baseline as well as at each study visit to assess changes in health habits during study participation. Following the completion of Visit 1 assessment, participants were given their 28-day supply of citicoline (250 mg or 500 mg) or placebo, which was randomly assigned. They were instructed to take one capsule a day every day for the next 28 days. Visit 2 occurred fourteen days after Visit 1. At Visit 2, the remaining study pills were counted and participant dosage calendars were checked to ensure compliance with the protocol. Additional neuropsychological measures and clinical assessments were administered during this visit. Participants returned for Visit 3 fourteen days later, on the 28th day of their study participation. The pill bottle and the dosage calendar were collected from each participant. Urine and blood were again obtained. Participants also participated in similar clinical and neuropsychological testing and clinical measures that were given during visit 1. The Stroop measures the ability to inhibit incorrect responses and to resist interference. The three conditions, Color Naming, Word Reading, and Interference, are designed to establish competing response tendencies. Outcome variables include time to complete each condition, as well as total errors per condition. The Stroop test was administered at each of the three visits.
structure (smiles),measurement,setting,value
"C[N+](C)(C)CCOP(=O)(O)OP(=O)([O-])OC[C@H]1O[C@@H](n2ccc(N)nc2=O)[C@H](O)[C@@H]1O [citicoline, Cytidine 5′-diphosphocholine]","ROCFT Copy Raw Score V1, Mean",[1]; 250 mg/day group,29.72
same,"ROCFT Delayed Raw Score V1, Mean",[1]; 250 mg/day group,21.63
same,"ROCFT Difference Raw Score V1, Mean",[1]; 250 mg/day group,-0.24
same,"ROCFT Immediate Raw Score V1, Mean",[1]; 250 mg/day group,21.39
same,"ROCFT V3-V1 Copy Raw Score, Mean",[1]; 250 mg/day group,0.28
same,"ROCFT V3-V1 Delayed Raw Score, Mean",[1]; 250 mg/day group,3.80
same,"ROCFT V3-V1 Difference Raw Score, Mean",[1]; 250 mg/day group,1.35
same,"ROCFT V3-V1 Immediate Raw Score, Mean",[1]; 250 mg/day group,5.15
same,"ROCFT Copy Raw Score V1, Mean",[1]; 500 mg/day group,29.13
same,"ROCFT Delayed Raw Score V1, Mean",[1]; 500 mg/day group,19.00
same,"ROCFT Difference Raw Score V1, Mean",[1]; 500 mg/day group,0.44
same,"ROCFT Immediate Raw Score V1, Mean",[1]; 500 mg/day group,19.48
same,"ROCFT V3-V1 Copy Raw Score, Mean",[1]; 500 mg/day group,0.27
same,"ROCFT V3-V1 Delayed Raw Score, Mean",[1]; 500 mg/day group,5.31
same,"ROCFT V3-V1 Difference Raw Score, Mean",[1]; 500 mg/day group,0.13
same,"ROCFT V3-V1 Immediate Raw Score, Mean",[1]; 500 mg/day group,5.40
same,"Stroop Color Trial V1, Mean",[2]; 250 mg/day group,61.05
same,"Stroop Difference V1, Mean",[2]; 250 mg/day group,43.53
same,"Stroop Interference Trial V1, Mean",[2]; 250 mg/day group,91.85
same,"Stroop Word Trial V1, Mean",[2]; 250 mg/day group,48.32
same,"V3-V1 Stroop Color Trial, Mean",[2]; 250 mg/day group,-7.71
same,"V3-V1 Stroop Difference, Mean",[2]; 250 mg/day group,-17.53
same,"V3-V1 Stroop Interference Trial, Mean",[2]; 250 mg/day group,-19.03
same,"V3-V1 Stroop Word Trial, Mean",[2]; 250 mg/day group,-1.98
same,"Stroop Color Trial V3, Mean",[2]; 250 mg/day group,53.34 and 53.35
same,"Stroop Difference V3, Mean",[2]; 250 mg/day group,26.00
same,"Stroop Interference Trial V3, Mean",[2]; 250 mg/day group,72.82
same,"Stroop Word Trial V3, Mean",[2]; 250 mg/day group,46.34
same,"Stroop Color Trial V1, Mean",[2]; 500 mg/day group,60.12
same,"Stroop Difference V1, Mean",[2]; 500 mg/day group,44.93
same,"Stroop Interference Trial V1, Mean",[2]; 500 mg/day group,91.62
same,"Stroop Word Trial V1, Mean",[2]; 500 mg/day group,46.69
same,"V3-V1 Stroop Color Trial, Mean",[2]; 500 mg/day group,-5.77
same,"V3-V1 Stroop Difference, Mean",[2]; 500 mg/day group,-15.55
same,"V3-V1 Stroop Interference Trial, Mean",[2]; 500 mg/day group,-16.95
same,"V3-V1 Stroop Word Trial, Mean",[2]; 500 mg/day group,-1.40
same,"Stroop Color Trial V3, Mean",[2]; 500 mg/day group,54.35
same,"Stroop Difference V3, Mean",[2]; 500 mg/day group,29.38
same,"Stroop Interference Trial V3, Mean",[2]; 500 mg/day group,74.68
same,"Stroop Word Trial V3, Mean",[2]; 500 mg/day group,45.30
